Measurements: paper PMC5052595, “Structure-based discovery of potentially active semiochemicals for Cydia pomonella (L.)” (Scientific Reports, 2016)
Values belong to the molecule of their own block, whether it stands above or below them.

Assays:
CpomPBP1 = assay: Competitive binding assay with 1-NPN fluorescence probe; set-up: species or system Cydia pomonella; conditions: for Kd: wild type CpomPBP1, 2 μM protein, 2 μM 1-NPN, 50 mM Tris-HCl pH 7.0, read-out: dissociation constant (Kd)
Experimental: (§1) According to the results of virtual screening and commercial availability of the matched semiochemicals, 8 compounds (including Codlemone) were finally subjected to competitive binding assay by taking 1-NPN as the fluorescence probe. All ligands including 1-NPN were dissolved in ethanol of GC grade. […] The fluorescence was measured on a Hitachi F-4600 spectrofluorimeter with a slit width of 5 nm for excitation and emission. The excitation wavelength was decided to be 337 nm and the fluorescence emissions were recorded from 350 to 500 nm. The in vitro binding assays between CpomPBP2 and small molecule compounds were performed in the same way.
(§2) It was assumed that CpomPBP1 (MT and WT) was 100% active and the binding between protein and ligand was 1:1 at saturation. To analyze the obtained data and to calculate the Kd of each ligand, Graphpad Prism software (Graphpad software, Inc.) was employed.

CpomPBP2 = CpomPBP2 (Cydia pomonella, UniProt I3ZNT9); assay: as above
Sequence of CpomPBP2 (I3ZNT9 26-169 limits assumed): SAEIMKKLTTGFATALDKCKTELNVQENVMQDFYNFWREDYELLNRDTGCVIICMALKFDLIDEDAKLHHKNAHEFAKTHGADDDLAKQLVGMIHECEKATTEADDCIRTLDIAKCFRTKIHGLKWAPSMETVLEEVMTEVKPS
Experimental: as §1, §2

CpomPBP1I94A = assay: Competitive binding assay, mutant protein; set-up: species or system Cydia pomonella; conditions: I94A; RTln(Kd-MT/Kd-WT)
Experimental: as §1
(§3) To test binding ability changes of CpomPBP1 caused by the mutation of each target site, the in vitro binding assays between CpomPBP1 proteins (MT and WT CpomPBP1) and ETrME was implemented according to the part of competitive binding assay.
as §2
(§4) The experimental binding free energy of the complexes formed by ETrME and each mutant was calculated by the equation (1): […]
(§5) In this equation, Kd-MT and Kd-WT are the dissociation constants for mutant and wild CpomPBP1 respectively. R stands for the ideal gas constant and T means the temperature in Kelvin.

CpomPBP1I52A = assay: Competitive binding assay, mutant protein; set-up: species or system Cydia pomonella; conditions: I52A; RTln(Kd-MT/Kd-WT)
Experimental: as §1, §3, §2, §4, §5

CpomPBP1F36A = assay: Competitive binding assay, mutant protein; set-up: species or system Cydia pomonella; conditions: F36A; RTln(Kd-MT/Kd-WT)
Experimental: as §1, §3, §2, §4, §5

CpomPBP1F12A = assay: Competitive binding assay, mutant protein; set-up: species or system Cydia pomonella; conditions: F12A; RTln(Kd-MT/Kd-WT)
Experimental: as §1, §3, §2, §4, §5

CpomPBP1W37A = assay: Competitive binding assay, mutant protein; set-up: species or system Cydia pomonella; conditions: W37A; RTln(Kd-MT/Kd-WT)
Experimental: as §1, §3, §2, §4, §5

Kd (CpomPBP1): 3.78 µM | binding to CpomPBP2 (in words) (CpomPBP2; titration course, 1-NPN probe): no binding
SMILES: C/C=C/C=C/CCCCCCCO [Codlemone, reference compound]

binding to CpomPBP1 (in words) (CpomPBP1; titration 0 to 64 μM ligand, 1-NPN probe): no binding
SMILES: CCCCC/C=C\C/C=C\CCCCCCCC(=O)O [Linoleic acid]

SMILES: CCC=CCC=CCC=CCCCCCCCCCC(=O)OC [ETrME]
ΔΔGbind-exp (CpomPBP1I94A): 1.4 kcal/mol | ΔΔGbind-exp (CpomPBP1I52A): 1.86 kcal/mol | ΔΔGbind-exp (CpomPBP1F36A): 3.25 kcal/mol | ΔΔGbind-exp (CpomPBP1F12A): 2.80 kcal/mol | ΔΔGbind-exp (CpomPBP1W37A): 3.54 kcal/mol | Kd (CpomPBP1): 3.14 µM | Kd (CpomPBP2; CpomPBP2, 1-NPN competitive binding, read-out: dissociation constant (Kd)): 8.62 µM

Kd (CpomPBP1): 12.8 µM
SMILES: CCCCC/C=C\C/C=C\C/C=C\CCCCCCC(=O)O [Z-8,11,14-Eicosatrienoic acid]

Kd (CpomPBP1): 8.23 µM
SMILES: CCC=CCC=CCC=CCC=CC=CC(O)CCCC(=O)O (racemic) [(±)5-HEPE]
